This is an account of results in article PMC8765435, “In Vitro Antimalarial Activity of Inhibitors of the Human GTPase Rac1” (Antimicrobial Agents and Chemotherapy, 2022).

Molecules are shown by their SMILES.

The test system of assay [1] is P. falciparum asexual parasites, chloroquine-sensitive D10 strain. Put plainly: Drug susceptibility assay (pLDH), asexual parasites, D10 strain. The note with it: Plasmodium falciparum, D10, chloroquine-sensitive D10 strain; read-out: IC50, D10 strain. The format is cell-based, Plasmodium falciparum. The procedure: (§1) Chloroquine (CQ)-sensitive (D10, wild-type 3D7, or transgenic 3D7elo1-pfs16-CBG99) and CQ-resistant (W2) strains of P. falciparum were cultured as described previously ([58]), with slight modifications, as detailed in the supplemental material.
(§2) Asexual parasite growth was determined spectrophotometrically (optical density at 650 nm [OD650]) by measuring the activity of parasite lactate dehydrogenase (pLDH), according to a modified version of the method of Makler et al. ([59]). Gametocyte viability was measured by a luminescence method described previously ([60]). Details for the two methods are reported in the supplemental material. From either the OD or ALU (arbitrary luminescence units), the percentages of viability were calculated according to the formula 100 × (treated sample signal − blank signal)/(untreated control signal − blank signal). The blank for the pLDH assay was uninfected RBCs at the same hematocrit as that of parasitized RBCs, and the blank for the luminescence assay was parasites treated with a high dose of methylene blue. […]
(§3) The CQ-sensitive (D10) and the CQ-resistant (W2) strains were maintained at 5% hematocrit […]
(§4) supplemented with 1% AlbuMaxII (lipid-rich bovine serum albumin) (Invitrogen), 0.01% hypoxantine (Sigma), 20mM Hepes (EuroClone), 2 mM glutamine (EuroClone). […]
(§5) In vitro P. falciparum drug susceptibility assay […]
(§6) plate were transferred to a plate containing 100µl of Malstat reagent (0.11% [vol/vol] Triton- […]
(§7) dinucleotide [APAD] [Sigma-Aldrich], adjusted to pH 9 with 1 M HCl) and 25 µl of PES/NBT […]
(§8) pLDHassay. The plate was read at a wavelength of 650 nm using a microplate reader, Synergy4 […]
(§9) Uninfected RBC at the same HCT than parasites were used as blank. […]

For assay [2], the system named is P. falciparum asexual parasites, chloroquine-resistant W2 strain. Put plainly: Drug susceptibility assay (pLDH), asexual parasites, W2 strain. Format: cell-based, Plasmodium falciparum. The settings on record: Plasmodium falciparum, W2, chloroquine-resistant W2 strain; read-out: IC50, W2 strain. Here is the method: as §1, §2, §3, §4, §5, §6, §7, §8, §9
The subject of assay [3] is P. falciparum invasion of red blood cells. Put plainly: Parasite invasion assay. The format is cell-based, Plasmodium falciparum. The settings on record: 2.5 μM. The procedure: Invasion assays were performed as previously described ([17]). Invasion rates were calculated by subtracting the number of schizonts at the end of the assay (6 h postinvasion [hpi]) from the number of schizonts in the time zero (T0) sample, obtaining the number of merozoite-releasing schizonts. The number of new infections was normalized to the number of merozoite-releasing schizonts to obtain the parasitized erythrocyte multiplication rate (PEMR). This value was normalized to the control sample, obtaining the invasion rate value. The results are the means from three independent biological replicates, each performed in triplicate.

In assay [4] the test system is P. falciparum intraerythrocytic parasites. Put plainly: Parasite intraerythrocytic growth (Giemsa smears). The note with it: 1.4 μM. Format: cell-based, Plasmodium falciparum. Here is the method:
A culture of erythrocytes freshly invaded by P. falciparum parasites was set up as previously described ([17]). Parasites were exposed to 1.4 μM EHop-016, and an untreated control was set up. Blood smears were taken at 20, 27, and 39 hpi, corresponding to late ring, trophozoite, and schizont stages, and then Giemsa stained and counted by optical microscopy in order to assess parasitemia. Pictures of the blood smears were taken with a Leica ICC50W camera. These experiments were performed in three biological replicates.

Assay [5] deals with P. falciparum W2 asexual parasites. Briefly: Association experiments (isobologram), W2 parasites. The format is cell-based, Plasmodium falciparum. The note with it: in combination with 1A116, W2 parasites. Here is the method: The effect of 1A116 on the IC50 of EHop-016 was determined by potentiation tests as previously described ([62]). Isobolograms were created by plotting a pair of fractional IC50s for each combination of EHop-016 and 1A116. […] The corresponding 1A116 fractional IC50s were calculated by dividing each fixed concentration by the IC50 of 1A116 alone and plotted on the vertical axis.

The target of another assay is Rac1 (Homo sapiens, UniProt P63000). Briefly: Immunofluorescence assay with anti-Rac1/GTP on parasitophorous vacuole. The format is cell-based. Further details: endogenous in cells; host or cells: erythrocytes from whole blood of 7 donors. The note with it: 1.4 μM, 20 h. The procedure:
We thus decided to investigate the Rac1 activation state in infected erythrocytes treated with EHop-016 and in the untreated control. To do this, we applied a methodology that allows us to specifically measure Rac1 activation levels on the parasitophorous vacuole. Freshly invaded erythrocytes were thus exposed to 1.4 μM EHop-016 treatment for 20 h and then smeared and analyzed by an immunofluorescence assay (IFA) with an antibody that specifically recognizes Rac1 in its active form (anti-Rac1/GTP). The resulting fluorescence signal was measured both in the EHop-016-treated sample and in the untreated control.
Cytotoxicity was evaluated on Human Microvascular Endothelial Cells (HMEC-1) maintained in MCDB-131 medium supplemented with 10% foetal calf serum (Euroclone), 20mM HEPES and 2 mM L-glutamine. […]
Immuno-fluorescence assay
Synchronous mature schizonts were purified by 60% Percoll gradient and allowed to invade fresh human RBCs for two hours. […] Negative controls without primary antibodies have been performed, resulting in complete absence of fluorescence s ignals. Anti-Rac1/GTP fluorescence signal was measured by using the software ImageJ (the parasitophorous vacuole area was delimited based on the anti-Exp1 signal). At least 40 cells were analyzed in each sample.

Turning to `CCn1c2ccccc2c2cc(Nc3ccnc(NCCCN4CCOCC4)n3)ccc21` [EHop-016], the IC50 (as a rule, the concentration needed to halve the response being measured) in assay [1] came out at 139 ± 16 nM. The IC50 in assay [2] is 322 ± 28.5 nM. Moreover, the “RBC invasion efficiency (invasion rate vs untreated control)” value in assay [3] was “did not reduce the RBC invasion efficiency”. Further, the “parasitemia compared to untreated control” value in assay [4] (20, 27 and 39 hpi) is “significant, time-dependent reduction in parasitemia”. In assay [4] (up to 39 hpi), the parasite developmental process entry is given as “complete block of the developmental process”. Also, in assay [5], the “effect of combination (isobologram analysis)” value was “additive effect” and the “fractional inhibitory concentration (FIC)” value is given as under 2. Also, the “anti-Rac1/GTP fluorescence intensity of parasitophorous vacuoles vs untreated control” value on Rac1 is “significantly lower”.
